Source: patent US20240270744A1 (Hoffmann-La Roche Inc., priority 2021, published 2024)
Read-outs that look alike come from different tables or passages of the source.

Experiments:
[1] = target: human GABAA α5β2γ1 receptor (Homo sapiens (Human), UniProt P31644+Q8N1C3); assay: Radioligand binding assay, competition for [3H]RO7239181, γ1-containing GABAA subtypes; conditions: Table 1; [3H]RO7239181 displacement, membranes from HEK293F cells, mean of two determinations
Procedure: The affinity of compounds at GABAA γ1 subunit-containing receptors was measured by competition for [^3H]RO7239181 (67.3 Ci/mmol; Roche) binding to membranes from HEK293F cells (ThermoFisher R79007) expressing human (transiently transfected) receptors of composition α5β2γ1, α2β2γ1, α1β2γ1. For better protein expression of the α2 subunit-containing receptors, the 28 amino acid long signal peptide (Met1 to Ala28) of the human GABAA α2 subunit was substituted by the 31 amino acid long signal peptide (Met1 to Ser31) of human GABAA α5 subunit.
(§1) Harvested pellets from HEK293F cells expressing the different GABAA receptor subtypes were resuspended in Mannitol Buffer pH 7.2-7.4 (Mannitol 0.29 M, Triethylamine 10 mM, Acetic acid 10 mM, EDTA 1 mM plus protease inhibitors (20 tablets Complete, Roche Diagnostics Cat. No. 05 056 489 001 per liter)), washed two times and then resuspended at 1:10 to 1:15 dilution in the same buffer. Cell disruption was performed by stirring the suspension in a Parr vessel #4637 at 435 psi for 15 minutes, and then the suspensions were centrifuged at 1000×g for 15 minutes at 4° C. (Beckman Avanti J-HC: rotor JS-4.2). The supernatant (S1) was transferred in a 21 Schott flask and the pellet (P1) was resuspended with Mannitol Buffer up to 175 ml. The resuspended pellet was transferred into a 250 ml Corning centrifugal beaker and centrifuged at 1500×g for 10 minutes at 4° C. (Beckman Avanti J-HC: rotor JS-4.2). The supernatant (S1) was then transferred in the 21 Schott flask and the pellet was discarded. The supernatants (S1) were centrifuged in 500 ml Beckman polypropylene centrifugal beaker at 15′000×g for 30 minutes at 4° C. (Beckman Avanti J-20 XP; rotor JLA-10.500). The pellet (P2) was resuspended with Mannitol Buffer 1:1 and frozen at −80° C. The supernatant (S2) was centrifuged in 100 ml Beckman polypropylene centrifugal tubes at 48000×g for 50 minutes at 4° C. (Beckman Avanti J-20 XP; rotor JA-18). The supernatant (S3) was discarded and the pellet (P3) was resuspended with 1:1 Mannitol Buffer. The P2 and P3 protein concentration was determined with the BIORAD Standard assay method with bovine serum albumin as standard and measured on the NANO-Drop 1000. The membrane suspension was aliquots (500 μl per tube) and stored at −80° C. until required.
(§2) Membrane homogenates were resuspended and polytronised (Polytron PT1200E Kinematica AG) in Potassium Phosphate 10 mM, KCl 100 mM binding buffer at pH 7.4 to a final assay concentration determined with a previous experiment.
Radioligand binding assays were carried out in a volume of 200 μL (96-well plates) which contained 100 μL of cell membranes, [3H]RO7239181 at a concentration of 1.5 nM (α5β2γ1) or 20-30 nM (α1β2γ1, α2β2γ1) and the test compound in the range of [0.3-10000]=10^−9 M. Nonspecific binding was defined by 10×10^−6 (α5β2γ1) and 30×10^−6 M RO7239181 and typically represented less than 5% (α5β2γ1) and less than 20% (β1β2γ1, α2β2γ1) of the total binding. Assays were incubated to equilibrium for 1 hour at 4° C. and then, membranes were filtered onto unifilter (96-well white microplate with bonded GF/C filters preincubated 20-50 minutes in 0.3% Polyethylenimine) with a Filtermate 196 harvester (Packard BioScience) and washed 4 times with cold Potassium Phosphate 10 mM pH 7.4, KCl 100 mM binding buffer. After anhydrousing, filter-retained radioactivity was detected by liquid scintillation counting. Ki values were calculated using Excel-Fit (Microsoft) and are the means of two determinations.
Representative test results, obtained by the above described assay measuring binding affinity to HEK293 cells expressing human (h) receptors, are shown in the Table 1.

[2] = target: human GABAA α2β2γ1 receptor (Homo sapiens (Human), UniProt P47869+Q8N1C3); assay: as above; conditions: for LogSel: Log of the γ2/γ1 Ki ratio
Procedure: The affinity of compounds at GABAA γ1 subunit-containing receptors was measured by competition for [^3H]RO7239181 (67.3 Ci/mmol; Roche) binding to membranes from HEK293F cells (ThermoFisher R79007) expressing human (transiently transfected) receptors of composition α5β2γ1, α2β2γ1, α1β2γ1.
as §1, §2
Assays were incubated to equilibrium for 1 hour at 4° C. and then, membranes were filtered onto unifilter (96-well white microplate with bonded GF/C filters preincubated 20-50 minutes in 0.3% Polyethylenimine) with a Filtermate 196 harvester (Packard BioScience) and washed 4 times with cold Potassium Phosphate 10 mM pH 7.4, KCl 100 mM binding buffer. After anhydrousing, filter-retained radioactivity was detected by liquid scintillation counting. Ki values were calculated using Excel-Fit (Microsoft) and are the means of two determinations.

[3] = target: human GABAA α1β3γ2 receptor (Homo sapiens (Human), UniProt P14867+P18507); assay: Radioligand binding assay, competition for [3H]Flumazenil, γ2-containing GABAA subtypes; conditions: read-out: Ki h-GABAA α1β3γ2
Procedure: The affinity of compounds at GABAA γ2 subunit-containing receptors was measured by competition for [^3H]Flumazenil (81.1 Ci/mmol; Roche) binding to HEK293F cells expressing human (transiently transfected) receptors of composition α1β3γ2.
Harvested pellets from HEK293F cells expressing the different GABAA γ2 receptor subtypes were resuspended in Mannitol Buffer pH 7.2-7.4 and processed as described above for the cells expressing the GABAA γ1 subunit-containing receptors.
Assays were incubated to equilibrium for 1 hour at 4° C. and harvested onto GF/C uni-filters (Packard) by filtration using a Packard harvester and washing with ice-cold wash buffer (50 mM Tris; pH 7.5). After anhydrousing, filter-retained radioactivity was detected by liquid scintillation counting. Ki values were calculated using Excel-Fit (Microsoft) and are the means of two determinations.

[4] = Ki h-GABAA α2β2γ1, Table 1, [3H]RO7239181 displacement, membranes from HEK293F cells, mean of two determinations
[5] = Ki h-GABAA α2β2γ1, Table 2, [3H]RO7239181 displacement
[6] = Table 1, Ki α1β3γ2 (nM)/Ki α2β2γ1 (nM)
[7] = Table 1, [3H]Flumazenil displacement, HEK293F cells, mean of two determinations
[8] = Ki h-GABAA α2β2γ1, Table 3, reference compounds comparison
[9] = Table 3, reference compounds comparison

Compound	Ki [1] [nM]	Ki [2, 4] [nM]	Ki [2, 5] [nM]	γ2/γ1 Selectivity Ratio [2, 6]	LogSel ([2]; Table 1)	Ki [3, 7] [nM]	Ki [2] [nM]	Ki ([2]; read-out: Ki h-GABAA α2β2γ1, Table 2, [3H]RO7239181 displacement) [nM]	Ki [2, 8] [nM]	γ2/γ1 Selectivity Ratio ([2]; Table 3, Ki α1β3γ2/Ki α2β2γ1)	LogSel ([2]; Table 3)	Ki [3, 9] [nM]	Ki ([2]; Table 1, [3H]RO7239181 displacement, membranes from HEK293F cells, mean of two determinations, read-out: Ki h-GABAA α2β2γ1) [nM]	Ki ([2]; Table 2, [3H]RO7239181 displacement, read-out: Ki h-GABAA α2β2γ1) [nM]
Cc1nnc2n1-c1cnc(Cl)c(Cl)c1C(c1c(F)cccc1F)=N[C@H]2C [Example 1, (7S)-11,12-dichloro-9-(2,6-difluorophenyl)-3,7-dimethyl-2,4,5,8,13-pentazatricyclo[8.4.0.02,6]tetradeca-1(10),3,5,8,11,13-hexaene]	2.4	31.7	31.7	34	1.53	1090	–	–	–	–	–	–	–	–
Cc1nnc2n1-c1cnc(C3CC3)c(Cl)c1C(c1c(F)cccc1F)=N[C@H]2C [Example 2, (7S)-11-chloro-12-cyclopropyl-9-(2,6-difluorophenyl)-3,7-dimethyl-2,4,5,8,13-pentazatricyclo[8.4.0.02,6]tetradeca-1(10),3,5,8,11,13-hexaene]	12.6	–	–	23	1.36	3290	143	143	–	–	–	–	–	–
Cc1ncc2c(c1Cl)C(c1c(F)cccc1F)=N[C@@H](C)c1nnc(C)n1-2 [Example 3, (7S)-11-chloro-9-(2,6-difluorophenyl)-3,7,12-trimethyl-2,4,5,8,13-pentazatricyclo[8.4.0.02,6]tetradeca-1(10),3,5,8,11,13-hexaene]	4.7	51.6	51.6	35	1.54	1790	–	–	–	–	–	–	–	–
Cc1nnc2n1-c1cnc(C(F)(F)F)c(Cl)c1C(c1c(F)cccc1F)=N[C@H]2C [Example 4, (7S)-11-chloro-9-(2,6-difluorophenyl)-3,7-dimethyl-12-(trifluoromethyl)-2,4,5,8,13-pentazatricyclo[8.4.0.02,6]tetradeca-1(10),3,5,8,11,13-hexaene]	4.9	64.3	64.3	113	2.05	7270	–	–	64.3	113	2.1	7270	–	–
Cc1nc2n(n1)-c1cnc(C(F)(F)F)c(Cl)c1C(c1c(F)cccc1F)=N[C@H]2C [Example 5]	1.7	–	–	118	2.07	4740	–	–	–	–	–	–	40	40
C[C@@H]1N=C(c2c(F)cccc2F)c2c(cnc(C(F)(F)F)c2Cl)-n2nc(C(=O)N3CCC3)nc21 [Example 6, azetidin-1-yl-[(7S)-11-chloro-9-(2,6-difluorophenyl)-7-methyl-12-(trifluoromethyl)-2,3,5,8,13-pentazatricyclo[8.4.0.02,6]tetradeca-1(10),3,5,8,11,13-hexaen-4-yl]methanone]	11.6	45.2	45.2	227	2.36	10200	–	–	–	–	–	–	–	–
C[C@@H]1N=C(c2c(F)cccc2F)c2c(cnc(C(F)(F)F)c2Cl)-n2nc(C(=O)N3CC(F)C3)nc21 [Example 7, [(7S)-11-chloro-9-(2,6-difluorophenyl)-7-methyl-12-(trifluoromethyl)-2,3,5,8,13-pentazatricyclo[8.4.0.02,6]tetradeca-1(10),3,5,8,11,13-hexaen-4-yl]-(3-fluoroazetidin-1-yl)methanone]	3.5	20.2	20.2	253	2.40	5100	–	–	–	–	–	–	–	–
C[C@@H]1N=C(c2c(F)cccc2F)c2c(cnc(C(F)(F)F)c2Cl)-n2nc(C(=O)N3CC(O)C3)nc21 [Example 8, [(7S)-11-chloro-9-(2,6-difluorophenyl)-7-methyl-12-(trifluoromethyl)-2,3,5,8,13-pentazatricyclo[8.4.0.02,6]tetradeca-1(10),3,5,8,11,13-hexaen-4-yl]-(3-hydroxyazetidin-1-yl)methanone]	2.5	14.6	14.6	255	2.41	3720	–	–	–	–	–	–	–	–
COC1CN(C(=O)c2nc3n(n2)-c2cnc(C(F)(F)F)c(Cl)c2C(c2c(F)cccc2F)=N[C@H]3C)C1 [Example 9, [(7S)-11-chloro-9-(2,6-difluorophenyl)-7-methyl-12-(trifluoromethyl)-2,3,5,8,13-pentazatricyclo[8.4.0.02,6]tetradeca-1(10),3,5,8,11,13-hexaen-4-yl]-(3-methoxyazetidin-1-yl)methanone]	7.1	19.9	19.9	170	2.23	3390	–	–	–	–	–	–	–	–
C[C@@H]1N=C(c2c(F)cccc2F)c2c(cnc(C(F)(F)F)c2Cl)-n2nc(C(=O)N3CC(C)(O)C3)nc21 [Example 10, [(7S)-11-chloro-9-(2,6-difluorophenyl)-7-methyl-12-(trifluoromethyl)-2,3,5,8,13-pentazatricyclo[8.4.0.02,6]tetradeca-1(10),3,5,8,11,13-hexaen-4-yl]-(3-hydroxy-3-methyl-azetidin-1-yl)methanone]	3	14.3	14.3	321	2.51	4610	–	–	14.3	321	2.5	4610	–	–
